# Tests used:
# Type in all cases: in vivo
# Kochia (Kochia scoparia) [1] = assay: Test A preemergence; conditions: for Kochia plant response rating (0 to 100 scale, 0 is no effect, 100 is complete control): visual injury approx. 10 d
# In short: (§1)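 Seeded soil received test chemicals as a preemergence directed spray, and seedlings at one to two leaves, 2–10 cm tall, received them postemergence, in a non-phytotoxic, surfactant-containing solvent mixture. Pots were held in a greenhouse for approximately 10 d, then rated for injury from 0, no effect, to 100, complete control.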
# [2] = system: barnyardgrass (Echinochloa crus-galli); assay: Test A preemergence; conditions: for Barnyardgrass plant response rating (0 to 100 scale, 0 is no effect, 100 is complete control): visual injury approx. 10 d
# In short: as §1
# [3] = system: giant foxtail (Setaria faberii); assay: Test A preemergence; conditions: for Foxtail, Giant plant response rating (0 to 100 scale, 0 is no effect, 100 is complete control): visual injury approx. 10 d
# In short: as §1
# [4] = system: pigweed (Amaranthus retroflexus); assay: Test A preemergence; conditions: for Pigweed plant response rating (0 to 100 scale, 0 is no effect, 100 is complete control): visual injury approx. 10 d
# [5] = system: ragweed (common ragweed, Ambrosia elatior); assay: Test A preemergence; conditions: for Ragweed plant response rating (0 to 100 scale, 0 is no effect, 100 is complete control): visual injury approx. 10 d
# In short: as §1
# [6] = system: ryegrass, Italian (Italian ryegrass, Lolium multiflorum); assay: Test A preemergence; conditions: for Ryegrass, Italian plant response rating (0 to 100 scale, 0 is no effect, 100 is complete control): visual injury approx. 10 d
# In short: as §1
# [7] = system: Galium (catchweed bedstraw, Galium aparine); assay: Test A postemergence
# In short: as §1
# Kochia (Kochia scoparia) [8] = assay: Test A postemergence
# In short: as §1
# [9] = system: barnyardgrass (Echinochloa crus-galli); assay: Test A postemergence
# In short: as §1
# [10] = system: blackgrass (Alopecurus myosuroides); assay: Test A postemergence
# In short: as §1
# corn (Zea mays) = assay: Test A postemergence
# In short: as §1
# [11] = system: giant foxtail (Setaria faberii); assay: Test A postemergence
# In short: as §1
# [12] = system: pigweed (Amaranthus retroflexus); assay: Test A postemergence
# In short: as §1
# [13] = system: ragweed (common ragweed, Ambrosia elatior); assay: Test A postemergence
# In short: as §1
# [14] = system: ryegrass, Italian (Italian ryegrass, Lolium multiflorum); assay: Test A postemergence
# In short: as §1
# [15] = system: wheat (Triticum aestivum); assay: Test A postemergence
# In short: as §1
# [16] = system: barnyardgrass (Echinochloa crus-galli); assay: Test B flooded paddy test; conditions: Flood, 0 to 100 scale where 0 is no effect and 100 is complete control, 13 to 15 d
# In short: (§2)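 Flooding to 3 cm over soil accompanied treatment, which consisted of adding compound to the standing water around 2-leaf plants; depth was then maintained. Visual assessment versus controls followed at 13 to 15 d (scale 0–100, 0 meaning no effect).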
# [17] = system: ducksalad (Heteranthera limosa); assay: Test B flooded paddy test; conditions: Flood, 0 to 100 scale where 0 is no effect and 100 is complete control, 13 to 15 d
# In short: as §2
# rice (Oryra sativa) = assay: Test B flooded paddy test; conditions: Flood, 0 to 100 scale where 0 is no effect and 100 is complete control, 13 to 15 d
# In short: as §2
# [18] = system: sedge, umbrella (small-flower umbrella sedge, Cyperus difformis); assay: Test B flooded paddy test; conditions: Flood, 0 to 100 scale where 0 is no effect and 100 is complete control, 13 to 15 d
# In short: as §2
# [19] = 125 g ai/ha, preemergence, visual rating after approx. 10 d, 0 to 100 scale where 0 is no effect and 100 is complete control
# [20] = 500 g ai/ha, preemergence, 0 to 100 scale, 0 = no effect, 100 = complete control
# [21] = 125 g ai/ha, postemergence, visual injury after approximately 10 d, 0 to 100 scale (0 no effect, 100 complete control)
# [22] = 500 g ai/ha, postemergence, visual injury, 0 to 100 scale (0 no effect, 100 complete control), approx. 10 d
# [23] = 125 g ai/ha, preemergence, 0 to 100 scale (0 no effect, 100 complete control)
# [24] = 125 g ai/ha, postemergence, visual injury rating on 0 to 100 scale (0 no effect, 100 complete control), approx. 10 d
# [25] = 500 g ai/ha, postemergence, 0 to 100 scale, 0 no effect, 100 complete control
# [26] = 125 g ai/ha, Preemergence, visual injury after approximately 10 d, 0 to 100 scale where 0 is no effect and 100 is complete control
# [27] = 125 g ai/ha, postemergence, visual rating after approx. 10 d, 0 to 100 scale (0 no effect, 100 complete control)
# [28] = Postemergence, 500 g ai/ha, 0 to 100 scale where 0 is no effect and 100 is complete control
smiles,measurement,setting,value
CC(=O)c1ccccc1NC(=O)C1C(=O)NCC1c1cccc(C(F)(F)F)c1 (racemic) [Compound 706],"Plant response rating, Kochia",Kochia (Kochia scoparia) [1]; [19],0
same,"Plant response rating, Kochia",Kochia (Kochia scoparia) [1]; [20],0
same,"Plant response rating, Barnyardgrass",[2]; [19],0
same,"Plant response rating, Barnyardgrass",[2]; [20],70
same,"Plant response rating, Foxtail, Giant",[3]; [19],0
same,"Plant response rating, Foxtail, Giant",[3]; [20],80
same,"Plant response rating, Pigweed",[4]; [19],0
same,"Plant response rating, Pigweed",[4]; [20],0
same,"Plant response rating, Ragweed",[5]; [19],0
same,"Plant response rating, Ragweed",[5]; [20],0
same,"Plant response rating, Ryegrass, Italian",[6]; [19],0
same,"Plant response rating, Ryegrass, Italian",[6]; [20],0
same,"Plant response rating, Galium",[7]; [21],0
same,"Plant response rating, Galium",[7]; [22],0
same,"Plant response rating, Kochia",Kochia (Kochia scoparia) [8]; [21],0
same,"Plant response rating, Kochia",Kochia (Kochia scoparia) [8]; [22],0
same,"Plant response rating, Barnyardgrass",[9]; [21],0
same,"Plant response rating, Barnyardgrass",[9]; [22],50
same,"Plant response rating, Blackgrass",[10]; [21],0
same,"Plant response rating, Blackgrass",[10]; [22],0
same,"Plant response rating, Corn",corn (Zea mays); [21],0
same,"Plant response rating, Corn",corn (Zea mays); [22],0
same,"Plant response rating, Foxtail, Giant",[11]; [21],0
same,"Plant response rating, Foxtail, Giant",[11]; [22],30
same,"Plant response rating, Pigweed",[12]; [21],0
same,"Plant response rating, Pigweed",[12]; [22],0
same,"Plant response rating, Ragweed",[13]; [21],0
same,"Plant response rating, Ragweed",[13]; [22],0
same,"Plant response rating, Ryegrass, Italian",[14]; [21],0
same,"Plant response rating, Ryegrass, Italian",[14]; [22],0
same,"Plant response rating, Wheat",[15]; [21],0
same,"Plant response rating, Wheat",[15]; [22],0
same,"Plant response rating, Barnyardgrass",[16]; 500 g ai/ha,0
same,"Plant response rating, Ducksalad",[17]; 500 g ai/ha,0
same,"Plant response rating, Rice",rice (Oryra sativa); 500 g ai/ha,15
same,"Plant response rating, Sedge, Umbrella",[18]; 500 g ai/ha,0
O=C1NCC(c2ccc(Br)cc2)C1C(=O)Nc1ccc(F)cc1F (stereo not drawn) [Compound 447],"Plant response rating, Kochia",Kochia (Kochia scoparia) [1]; [23],50
same,"Kochia plant response rating (0 to 100 scale, 0 is no effect, 100 is complete control)","Kochia (Kochia scoparia) [1]; Preemergence, 500 g ai/ha",50
same,"Plant response rating, Barnyardgrass",[2]; [23],70
same,"Barnyardgrass plant response rating (0 to 100 scale, 0 is no effect, 100 is complete control)","[2]; Preemergence, 500 g ai/ha",90
same,"Plant response rating, Foxtail, Giant",[3]; [23],90
same,"Foxtail, Giant plant response rating (0 to 100 scale, 0 is no effect, 100 is complete control)","[3]; Preemergence, 500 g ai/ha",90
same,"Plant response rating, Pigweed",[4]; [23],30
same,"Pigweed plant response rating (0 to 100 scale, 0 is no effect, 100 is complete control)","[4]; Preemergence, 500 g ai/ha",30
same,"Plant response rating, Ragweed",[5]; [23],0
same,"Ragweed plant response rating (0 to 100 scale, 0 is no effect, 100 is complete control)","[5]; Preemergence, 500 g ai/ha",0
same,"Plant response rating, Ryegrass, Italian",[6]; [23],20
same,"Ryegrass, Italian plant response rating (0 to 100 scale, 0 is no effect, 100 is complete control)","[6]; Preemergence, 500 g ai/ha",30
same,Galium plant response rating,[7]; [24],40
same,"Plant response rating, Galium",[7]; [25],50
same,Kochia plant response rating,Kochia (Kochia scoparia) [8]; [24],0
same,"Plant response rating, Kochia",Kochia (Kochia scoparia) [8]; [25],40
same,Barnyardgrass plant response rating,[9]; [24],80
same,"Plant response rating, Barnyardgrass",[9]; [25],80
same,Blackgrass plant response rating,[10]; [24],0
same,"Plant response rating, Blackgrass",[10]; [25],30
same,Corn plant response rating,corn (Zea mays); [24],0
same,"Plant response rating, Corn",corn (Zea mays); [25],0
same,"Foxtail, Giant plant response rating",[11]; [24],80
same,"Plant response rating, Foxtail, Giant",[11]; [25],80
same,Pigweed plant response rating,[12]; [24],0
same,"Plant response rating, Pigweed",[12]; [25],30
same,Ragweed plant response rating,[13]; [24],0
same,"Plant response rating, Ragweed",[13]; [25],0
same,"Ryegrass, Italian plant response rating",[14]; [24],0
same,"Plant response rating, Ryegrass, Italian",[14]; [25],20
same,Wheat plant response rating,[15]; [24],0
same,"Plant response rating, Wheat",[15]; [25],0
same,"Plant response rating, Barnyardgrass",[16]; 250 g ai/ha,40
same,"Plant response rating, Ducksalad",[17]; 250 g ai/ha,98
same,"Plant response rating, Rice",rice (Oryra sativa); 250 g ai/ha,0
same,"Plant response rating, Sedge, Umbrella",[18]; 250 g ai/ha,0
CC(C)Oc1cccc(C2CNC(=O)C2C(=O)Nc2ccccc2F)c1 (stereo not drawn) [Compound 552],"Plant response rating, Kochia",Kochia (Kochia scoparia) [1]; [26],0
same,"Kochia plant response rating (0 to 100 scale, 0 is no effect, 100 is complete control)","Kochia (Kochia scoparia) [1]; Preemergence, 500 g ai/ha",70
same,"Plant response rating, Barnyardgrass",[2]; [26],90
same,"Barnyardgrass plant response rating (0 to 100 scale, 0 is no effect, 100 is complete control)","[2]; Preemergence, 500 g ai/ha",90
same,"Plant response rating, Foxtail, Giant",[3]; [26],90
same,"Foxtail, Giant plant response rating (0 to 100 scale, 0 is no effect, 100 is complete control)","[3]; Preemergence, 500 g ai/ha",90
same,"Plant response rating, Pigweed",[4]; [26],0
same,"Pigweed plant response rating (0 to 100 scale, 0 is no effect, 100 is complete control)","[4]; Preemergence, 500 g ai/ha",0
same,"Plant response rating, Ragweed",[5]; [26],0
same,"Ragweed plant response rating (0 to 100 scale, 0 is no effect, 100 is complete control)","[5]; Preemergence, 500 g ai/ha",60
same,"Plant response rating, Ryegrass, Italian",[6]; [26],20
same,"Ryegrass, Italian plant response rating (0 to 100 scale, 0 is no effect, 100 is complete control)","[6]; Preemergence, 500 g ai/ha",40
same,"Plant response rating, Galium",[7]; [27],40
same,"Plant response rating, Galium",[7]; [28],60
same,"Plant response rating, Kochia",Kochia (Kochia scoparia) [8]; [27],0
same,"Plant response rating, Kochia",Kochia (Kochia scoparia) [8]; [28],30
same,"Plant response rating, Barnyardgrass",[9]; [27],80
same,"Plant response rating, Barnyardgrass",[9]; [28],90
same,"Plant response rating, Blackgrass",[10]; [27],30
same,"Plant response rating, Blackgrass",[10]; [28],70
same,"Plant response rating, Corn",corn (Zea mays); [27],20
same,"Plant response rating, Corn",corn (Zea mays); [28],50
same,"Plant response rating, Foxtail, Giant",[11]; [27],70
same,"Plant response rating, Foxtail, Giant",[11]; [28],80
same,"Plant response rating, Pigweed",[12]; [27],0
same,"Plant response rating, Pigweed",[12]; [28],0
same,"Plant response rating, Ragweed",[13]; [27],0
same,"Plant response rating, Ragweed",[13]; [28],20
same,"Plant response rating, Ryegrass, Italian",[14]; [27],30
same,"Plant response rating, Ryegrass, Italian",[14]; [28],50
same,"Plant response rating, Wheat",[15]; [27],0
same,"Plant response rating, Wheat",[15]; [28],40
same,"Plant response rating, Barnyardgrass",[16]; 250 g ai/ha,60
same,"Plant response rating, Ducksalad",[17]; 250 g ai/ha,100
same,"Plant response rating, Rice",rice (Oryra sativa); 250 g ai/ha,10
same,"Plant response rating, Sedge, Umbrella",[18]; 250 g ai/ha,0

# Source: patent publication US12077503B2, “Substituted cyclic amides and their use as herbicides” (FMC CORPORATION, priority 2015, dated 2024)
